Molecules are shown by their SMILES. pEC50, pKi: −log10 of the molar value. “Also recorded” adds a separate entry of the source.

Data set [1] has as its target T1, 5HT2A receptors (Homo sapiens, UniProt P28223).
T1 construct: host or cells: HEK293, transient
As to the kind of experiment: 5-HT2A function in HEK cells over-expressing the receptor. Type of data set: cell-based.

The target in a further data set is T2, 5HT2C receptors (Homo sapiens, UniProt P28335).
T2 construct: host or cells: HEK293, transient
T2 sequence (P28335 33-458): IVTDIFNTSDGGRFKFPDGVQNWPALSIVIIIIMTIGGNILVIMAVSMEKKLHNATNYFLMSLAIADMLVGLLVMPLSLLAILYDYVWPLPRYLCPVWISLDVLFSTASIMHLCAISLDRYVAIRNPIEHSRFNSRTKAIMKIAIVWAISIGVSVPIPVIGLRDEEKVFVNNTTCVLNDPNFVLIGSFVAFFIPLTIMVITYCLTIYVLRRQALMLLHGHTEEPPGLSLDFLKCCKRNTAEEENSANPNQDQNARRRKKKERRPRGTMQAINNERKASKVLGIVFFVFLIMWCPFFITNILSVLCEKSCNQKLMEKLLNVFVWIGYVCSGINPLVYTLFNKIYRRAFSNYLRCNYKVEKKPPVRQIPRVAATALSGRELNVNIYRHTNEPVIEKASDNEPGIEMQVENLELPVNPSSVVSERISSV
As to the kind of experiment: 5HT2C functional assay. As to conditions: read-out: EC50 at 5HT2C receptors (agonist). It counts as cell-based.

A further data set relates to BL/6J mice. As to the kind of experiment: Serotonin syndrome-like behavior observation. It counts as in vivo, mouse.
The next data set concerns C58/J mice. As to the kind of experiment: Idiopathic stereotypic jumping. Type of data set: in vivo, mouse. As to conditions: dose-dependent; listed as (2S)-5-FPT, HCl.
The target of another data set is T3, 5HT2B receptors (Homo sapiens, UniProt P41595).
T3 construct: host or cells: HEK293, transient
T3 sequence (P41595 whole entry): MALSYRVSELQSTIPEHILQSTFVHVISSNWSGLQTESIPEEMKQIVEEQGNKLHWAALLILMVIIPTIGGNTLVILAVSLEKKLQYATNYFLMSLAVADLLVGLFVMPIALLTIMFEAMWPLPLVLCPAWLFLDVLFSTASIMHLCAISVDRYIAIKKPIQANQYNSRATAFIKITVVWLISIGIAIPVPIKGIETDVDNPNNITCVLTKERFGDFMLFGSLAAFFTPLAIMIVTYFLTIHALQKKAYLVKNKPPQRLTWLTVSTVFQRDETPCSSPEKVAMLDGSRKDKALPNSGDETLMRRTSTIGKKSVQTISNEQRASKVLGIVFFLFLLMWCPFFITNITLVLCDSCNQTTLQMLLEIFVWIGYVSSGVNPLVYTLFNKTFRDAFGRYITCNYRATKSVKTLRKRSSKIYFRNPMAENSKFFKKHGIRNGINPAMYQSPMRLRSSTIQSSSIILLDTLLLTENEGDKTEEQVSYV
As to the kind of experiment: Affinity at 5HT2B receptors. It counts as binding.

Data set [2] has as its target T1, 5HT2A receptors. As to the kind of experiment: biochemical. Type of data set: binding.
In the next data set the test system is C57BI/6J mice. As to the kind of experiment: d-Amphetamine (AMP)-elicited hyperlocomotion. It counts as in vivo, mouse. The settings on record: 5.6 mg/kg; listed as (2S)-5-FPT, HCl.

T1 sequence (P28223 whole entry): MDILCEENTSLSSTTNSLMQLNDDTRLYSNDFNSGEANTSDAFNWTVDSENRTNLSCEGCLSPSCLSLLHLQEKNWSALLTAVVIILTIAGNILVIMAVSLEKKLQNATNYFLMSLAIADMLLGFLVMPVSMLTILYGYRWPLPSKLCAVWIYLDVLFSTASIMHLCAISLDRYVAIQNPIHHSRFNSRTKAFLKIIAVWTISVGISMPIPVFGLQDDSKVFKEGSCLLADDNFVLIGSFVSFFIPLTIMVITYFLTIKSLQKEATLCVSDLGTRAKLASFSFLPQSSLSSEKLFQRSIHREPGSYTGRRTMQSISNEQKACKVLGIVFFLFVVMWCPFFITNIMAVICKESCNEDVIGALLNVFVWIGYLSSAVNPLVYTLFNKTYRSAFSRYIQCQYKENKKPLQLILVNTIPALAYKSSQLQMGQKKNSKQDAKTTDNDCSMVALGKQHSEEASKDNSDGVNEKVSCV

Regarding `CN(C)[C@H]1CCc2c(cccc2-c2ccccc2F)C1.Cl` [(S)-5-FPT, (2S)-5-(2-fluorophenyl)-N,N-dimethyl-1,2,3,4-tetrahydronaphthalen-2-amine HCl], on 5HT2A receptors [1], the “Function at 5-HT2A receptors” value is on record as “weak partial agonist activity”. For the same compound, the pEC50 at 5HT2C receptors was 6.64. Besides, in the data set on BL/6J mice (5.6 mg/kg, mean (SEM) number of six one-minute sessions with the behavior (score/6)), the “Flat Body” value was 0(0). Moreover, in the data set with BL/6J mice (5.6 mg/kg, mean (SEM) score/6), the “Forepaw Tread” value is given as 0(0), the “Head Weave” value is listed as 0(0), the “Moon Walk” value is 0.3(0.2) and the Piloerection was 0(0). Also, in the data set on BL/6J mice (5.6 mg/kg, mean (SEM) score/6), the “Straub Tail” value is 0(0) and the Tremor was 0(0). Besides, in the data set with BL/6J mice (mouse, in vivo, listed as (2S)-5-FPT, HCl), the “Serotonin syndrome” value is “did not result in symptoms of serotonin syndrome; also recorded: does not produce serotonin syndrome-like symptoms”. Moreover, the Stereotypic jumping result with C58/J mice is “potently eliminated stereotypic jumping; also recorded: greater efficacy in this model than the recently reported mGluR5 negative allosteric modulator, GRN-529”. At 5HT2B receptors, this compound showed a negative-log Ki (pKi) of 7.22. Moreover, the negative-log Ki (pKi) at 5HT2A receptors [2] is about 6.05. Besides, the “Hyperlocomotion caused by AMP” value with C57BI/6J mice is given as “did not reduce hyperlocomotion caused by AMP; also recorded: did not significantly decrease hyperlocomotion elicited by amphetamine”.

As a reminder, the pEC50 is −log10 of the EC50, conventionally taken in molar units. As usually defined, the pKi is the Ki on a negative log10 scale, so that one unit is a factor of ten.

For the origin of these results see patent US20230348358A1, “Serotonin Receptor Modulators” (Northeastern University, priority 2020, published 2023).
